Like-named read-outs stand apart in the source and are kept apart here.
T1: psicose 3-epimerase (Agrobacterium fabrum, UniProt A9CH28)
T1 construct: made in house; host or cells: Escherichia coli BL21(DE3)
T1 sequence (A9CH28 with tags, fused parts or gaps): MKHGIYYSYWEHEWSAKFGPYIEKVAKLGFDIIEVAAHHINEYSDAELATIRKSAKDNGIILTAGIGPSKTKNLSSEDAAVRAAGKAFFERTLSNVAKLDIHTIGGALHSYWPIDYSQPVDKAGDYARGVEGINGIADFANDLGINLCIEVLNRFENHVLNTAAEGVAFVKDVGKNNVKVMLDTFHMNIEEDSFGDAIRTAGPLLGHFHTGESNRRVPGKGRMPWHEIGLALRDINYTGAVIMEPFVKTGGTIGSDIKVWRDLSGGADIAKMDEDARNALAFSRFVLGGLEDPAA

B1: psicose 3-epimerase: enzyme (SEQ ID NO:1) from Agrobacterium tumefaciens ATCC33970 that converts D-fructose to D-psicose; monomer, metalloenzyme (protein, listed as Agrobacterium tumefaciens)
chain: T1 sequence (A9CH28 with tags, fused parts or gaps)

Tests used:
psicose 3-epimerase [1] = target: T1, psicose 3-epimerase; format: biochemical; conditions: for Relative activity (%): 1 mM metal ion added or EDTA treatment, 1.0% D-fructose, pH 7.5, 50° C., 20 minutes, None = 100; for effect of metal ion on enzyme activity: 1 mM metal ion, in words
Procedure: The enzyme activity was measured by using D-fructose as a substrate. For the measurement of the enzyme activity, psicose 3-epimerase was allowed to react with D-fructose in a 50 mM PIPES buffer solution containing 1.0% of D-fructose, at pH 7.5 and at 50° C. for 20 minutes, and then the reaction solution was heated at 100° C. for 5 minutes to terminate the reaction. […] For the purpose of easy comparison of the enzyme activity, one unit of psicose 3-epimerase is defined as the amount of the psicose 3-epimerase needed to produce 1 mole of D-psicose per one minute at pH 7.5 and at 50° C.
In order to investigate the effect of the addition of a metal ion, the enzyme activity of the psicose 3-epimerase was measured after treating the psicose 3-epimerase with EDTA, or after adding 1 mM each of the metal ions indicated in Table 1 below, to the psicose 3-epimerase. Reaction of the psicose 3-epimerase was performed in a 50 mM PIPES buffer solution containing 0.04 units/ml of the psicose 3-epimerase and 1.0% by weight of D-fructose at pH 7.5 and at 50° C. for 20 minutes, and then the reaction solution was heated at 100° C. for 5 minutes to terminate the reaction. Then, the enzyme activity of the psicose 3-epimerase was measured.

psicose 3-epimerase [2] = target: T1, psicose 3-epimerase; test: Substrate specificity of psicose 3-epimerase; format: biochemical; conditions: for Relative activity (%) No metal ion added / Relative activity (%) Mn^2+ added: 10 mM monosaccharide as substrate, pH 7.5, 50° C., 20 minutes
Procedure: In the current Experimental Example, MALDI-TOF-MS was used for the measurement of the molecular weight of psicose 3-epimerase, and cinnamic acid was used as a matrix. The enzyme activity was measured by using D-fructose as a substrate. For the measurement of the enzyme activity, psicose 3-epimerase was allowed to react with D-fructose in a 50 mM PIPES buffer solution containing 1.0% of D-fructose, at pH 7.5 and at 50° C. for 20 minutes, and then the reaction solution was heated at 100° C. for 5 minutes to terminate the reaction. The PIPES buffer solution containing D-fructose was prepared by dissolving D-fructose in PIPES buffer solution at pH 7 to 8 to a concentration of 60 to 70% by weight, and the PIPES buffer solution containing D-fructose was continuously added to a bioreactor maintained at 40 to 60° C. For the purpose of easy comparison of the enzyme activity, one unit of psicose 3-epimerase is defined as the amount of the psicose 3-epimerase needed to produce […] of D-psicose per one minute at pH 7.5 and at 50° C.
The concentrations of D-fructose, D-psicose, D-sorbose, D-tagatose, D-xylulose and D-ribulose were measured using a high pressure liquid chromatography system with a BP-100 calcium ion […] column and an RI detector. The column was conditioned to allow a flow of distilled water at a rate of 0.5 ml/min at 80° C.
Reaction of the psicose 3-epimerase was performed in a 50 mM PIPES buffer solution containing 0.04 units/ml of the psicose 3-epimerase and 10 mM each individually of the monosaccharides indicated in Table 2 below, at pH 7.5 and at 50° C. for 20 minutes, and then each of the reaction solutions were heated at 100° C. for 5 minutes to terminate the reaction. Then, the enzyme activity of the psicose 3-epimerase of each reaction solution was measured.

lipogenic enzymes = conditions: dietary, in words; cited from earlier work
[3] = in words; cited from earlier work
[4] = Activity of psicose 3-epimerase according to pH and temperature changes; format: biochemical
Procedure: In Example 5, the psicose 3-epimerase was reacted with D-fructose at various pH values and temperatures, and the enzyme activities obtained at the various pH values and temperatures were compared. In order to investigate the pH effect, the reaction of the psicose 3-epimerase was performed in a 50 mM PIPES buffer solution containing 0.04 units of psicose 3-epimerase/ml and 1.0% of D-fructose at pH values ranging from 6.5 to 7.5, and the same reaction was performed in a 50 mM EPPS buffer solution containing 0.04 units of psicose 3-epimerase/ml and 1.0% of D-fructose at pH values ranging from 7.5 to 8.5. Here, the respective reactions were performed at 50° C. when metal ions were not added, and at 60° C. when Mn ions were added, respectively for 20 minutes. Then, the reactions were terminated by heating the reaction solutions at 100° C. for 5 minutes, and the enzyme activities were measured. The results are illustrated in FIG. 1A.
In order to investigate the temperature effect, the reaction was performed in a 50 mM PIPES buffer solution containing 0.04 units of psicose 3-epimerase/ml and 1.0% of D-fructose at temperatures ranging from 30° C. to 70° C. for 20 minutes, at pH 7.5 when metal ions were not added, and at pH 7.0 when Mn ions were added. The reactions were terminated by heating the reaction solution at 100° C. for 5 minutes, and the enzyme activities were measured. The results are illustrated in FIG. 1B.

[5] = Equilibrium between D-psicose and D-fructose achieved by psicose 3-epimerase; format: biochemical
Procedure: In Example 6, the reaction of the psicose 3-epimerase was performed in a 50 mM PIPES buffer solution containing 0.04 units of psicose 3-epimerase/ml, 1 mM of Mn^2+ ions, and 0.1% of D-psicose and D-fructose together, at pH 7.0 and at temperatures ranging from 30° C. to 60° C. for 24 hours to allow the reaction to proceed sufficiently, in order to determine the equilibrium between D-psicose and D-fructose. Then, the reactions were terminated by heating the reaction solution at 100° C. for 5 minutes, and the enzyme activity was measured.
As a result, the reaction was started with 5 initial ratios of D-psicose to D-fructose, of 0:100, 25:75, 50:50, 75:25, and 100:0, and the final ratios of D-psicose to D-fructose were determined after 24 hours of the reaction, as shown in FIG. 2. Referring to FIG. 2, the ratio of D-psicose to D-fructose was 32:68 at 30° C., while the same ratio was 37:63 at 60° C.

[6] = D-psicose production by free psicose 3-epimerase; format: biochemical; conditions: 700 g/L D-fructose; for D-Psicose: 14 units/ml, 1 mM Mn^2+, pH 7.0, 60° C.
Procedure: In order to produce D-psicose at high concentrations, the reaction was performed in a 50 mM PIPES buffer solution containing 14 units of psicose 3-epimerase/ml, 1 mM of Mn^2+ ions, and 700 g/L of D-fructose, at pH 7.0 and at 60° C. for various reaction times. Then, the reaction was terminated by heating the reaction solution at 100° C. for 5 minutes, and the enzyme activity was measured.

Molecule	Relative activity (%) (psicose 3-epimerase [1])	Relative activity (%) No metal ion added (psicose 3-epimerase [2]) [%]	Relative activity (%) Mn^2+ added (psicose 3-epimerase [2]) [%]	other results
[Al+3] [Al^3+]	100	–	–	–
[Ba+2] [Ba^2+]	95.6	–	–	–
[Ca+2] [Ca^2+]	64.4	–	–	–
[Co+2] [Co^2+]	268	–	–	effect of metal ion on enzyme activity (psicose 3-epimerase [1]): enhanced the enzyme activity
[Cu+2] [Cu^2+]	2.2	–	–	effect of metal ion on enzyme activity (psicose 3-epimerase [1]): suppressed the enzyme activity
O=C(CO)[C@@H](O)[C@H](O)[C@H](O)COP(=O)(O)O [D-Fructose-6-phosphate]	–	0.0	0.0	–
O=C(CO)[C@@H](O)[C@H](O)[C@H](O)CO [D-Fructose]	–	37.9	139	–
O=C(CO)[C@H](O)[C@H](O)[C@H](O)CO [D-Psicose]	–	100	274	affinity of the psicose 3-epimerase for substrate (psicose 3-epimerase [2]; D-psicose compared with D-tagatose, in words): higher affinity; effect on activity of lipogenic enzymes (lipogenic enzymes): suppressing the activity of lipogenic enzymes; metabolism in the human body [3]: almost non-metabolizable
O=C(CO)[C@H](O)[C@H](O)COP(=O)(O)O [D-Ribulose-5-phosphate]	–	0.0	0.0	–
O=C(CO)[C@H](O)[C@H](O)CO [D-Ribulose]	–	10.2	15.4	–
O=C(CO)[C@H](O)[C@@H](O)[C@H](O)CO [D-Sorbose]	–	0.8	1.7	–
O=C(CO)[C@@H](O)[C@@H](O)[C@H](O)CO [D-Tagatose]	–	65.5	92.3	–
O=C(CO)[C@@H](O)[C@H](O)CO [D-Xylulose]	–	5.8	12.4	–
O=C(O)CN(CCN(CC(=O)O)CC(=O)O)CC(=O)O [EDTA]	20.0	–	–	–
[Fe+3] [Fe^3+]	121	–	–	Relative activity (%) (psicose 3-epimerase [1]; listed as Fe^2+): 139%
[Mg+2] [Mg^2+]	100	–	–	–
[Mn+2] [Mn^2+]	274	–	–	effect of metal ion on enzyme activity (psicose 3-epimerase [1]): enhanced the enzyme activity
[Mo+2] [Mo^2+]	93.3	–	–	–
[Zn+2] [Zn^2+]	4.4	–	–	effect of metal ion on enzyme activity (psicose 3-epimerase [1]): suppressed the enzyme activity
B1	–	–	–	optimal pH ([4]; Mn^2+ ions added): 7.0; optimal temperature ([4]; Mn^2+ ions added): 60 °C; optimal pH ([4]; metal ions not added): 7.5; optimal temperature ([4]; metal ions not added): 50 °C; superiority to the yield achievable by conventional methods of producing D-psicose [5]: approximately 20%; D-Psicose ([6]; reaction time 0 min): 0 g/L; D-Psicose ([6]; reaction time 10 min): 93 g/L; D-Psicose ([6]; reaction time 30 min): 155 g/L; D-Psicose ([6]; reaction time 60 min): 180 g/L; D-Psicose ([6]; reaction time 120 min): 211 g/L; D-psicose conversion yield ([6]; reaction time 120 minutes): 30.2%; D-Psicose ([6]; reaction time 180 min): 210 g/L; D-Psicose ([6]; reaction time 240 min): 210 g/L; D-Psicose ([6]; reaction time 300 min): 209 g/L
